Assay results: article PMC11325505, “Nitrogen-Containing Flavonoids—Preparation and Biological Activity” (ACS Omega, 2024)
≈ marks a conversion by molar mass, not a printed value. Where two headings read alike, the source gives them in different places.

How the values were obtained:
[1] = test system: Staphylococcus aureus MRSA 9; assay: Modulation of antibiotic-resistant phenotype (flavonoid plus breakpoint concentration of antibiotic); format: cell-based; settings: for minimum inhibitory concentration (MIC) in the presence of erythromycin: erythromycin at breakpoint concentration 1 mg/L; for minimum inhibitory concentration (MIC) in the presence of erythromycin / minimum inhibitory concentration (MIC) in the presence of gentamicin: MIC determined as IC70, three repetitions ± SEM; for minimum inhibitory concentration (MIC) in the presence of gentamicin: gentamicin at breakpoint concentration 1 mg/L
Experimental: (§1) To evaluate the ability to modulate bacterial resistance, the tested flavonoids themselves cannot exert antimicrobial activity; therefore, the nontoxic concentration was used, as indicated in Table S5. Clinically relevant antibiotics were selected at breakpoint concentrations for susceptibility testing according to the European Committee on Antimicrobial Susceptibility Testing (EUCAST, version 11.0). […] Flavonoids and their derivatives (from 1 μM to the highest nontoxic concentration) were used in combination with the breakpoint concentration of the antibiotics. After coincubation, the minimum inhibitory concentration (MIC) of flavonoids inhibiting the visible growth of bacteria was determined (Table 2).
(§2) Sensitization of multidrug-resistant clinical bacterial strains was performed according to ref[15]. Antibiotic cutoff concentration was chosen according to the European Committee on Antimicrobial Susceptibility Testing (EUCAST, Clinical breakpoints–bacteria, ver. 11.0). The 200 μM concentration of the derivatives was chosen as the highest test concentration. The absorbance detected at 600 nm was then used to estimate the number of viable cells after 24 h of incubation at 37 °C and 120 rpm.
(§3) Experiments were performed with the respective number of replicates indicated in each figure/table. MIC was determined as IC70. Both IC70 and IC50 values were calculated using the following nonlinear regression in the software GraphPad Prism: […]

[2] = test system: nitric oxide (NO) production by RAW 264.7 stimulated by LPS; assay: Anti-inflammatory activity: NO production by LPS-stimulated macrophages; format: cell-based, Murine; settings: Mus musculus, RAW264.7; LPS-stimulated RAW 264.7; average of four repetitions ± SEM
Experimental: (§4) The anti-inflammatory activity of flavonoids was evaluated as their ability to decrease the production of signaling molecules that mediate inflammation, such as nitric oxide (NO), tumor necrosis factor (TNF-α), and interleukin 6 (IL-6), in LPS-stimulated macrophages.
(§5) The anti-inflammatory activity of the tested flavonoids was determined as the ability to reduce the production of nitric oxide (NO), tumor necrosis factor (TNF-α), and interleukin 6 (IL-6) by RAW 264.7 stimulated by LPS, as previously described.[39],[40] Briefly, 1 × 10^6 cells/mL was seeded into the 96-well plate (100 μL/well). After 48 h, LPS (100 ng/mL) and the samples (3–100 μM) were added to the MEM medium. After 24 h, the medium was mixed with Griess reagent (0.04 g/mL) at a 1:1 ratio. The absorbance was measured after 15 min at 540 nm. Cell viability was determined using the resazurin assay.

[3] = test system: immortalized human keratinocytes (HaCaT); assay: Cytotoxicity (resazurin assay), keratinocytes; format: cell-based; settings: Homo sapiens, HaCaT, 72 h, read-out: HaCaT IC50 (concentration that halved the viability)
Experimental: (§6) The cytotoxicity of the prepared derivatives was evaluated by their ability to decrease the viability of immortalized human keratinocytes (HaCaT) and human dermal fibroblasts (HDF).
(§7) 100 μL of cell suspension containing 10^5 cells/mL was pipetted into a 96-well plate. After 24 h incubation, the tested compounds were added in the concentration range 12.5–200 μM. After 72 h incubation, the cell viability was tested by standard resazurin assay.[41] Briefly, the cells were washed with PBS and incubated with 100 μL of resazurin solution (0.025 mg/mL) for 2 h. The fluorescence was measured at a wavelength of 560 nm excitation/590 nm emission.

[4] = test system: human dermal fibroblasts (HDF); assay: Cytotoxicity (resazurin assay), fibroblasts; format: cell-based; settings: Homo sapiens, Fibroblast, 72 h, read-out: HDF IC50 (concentration that halved the viability)
Experimental: as §6, §7

S. aureus CCM 4223 = assay: Antibacterial activity, antibiotic-sensitive strain; format: cell-based; settings: Staphylococcus aureus, CCM4223, three repetitions ± SEM
[5] = test system: tumor necrosis factor (TNF-α) production by RAW 264.7 stimulated by LPS; assay: Anti-inflammatory activity: TNF-α production by LPS-stimulated macrophages; format: cell-based, Murine; settings: Mus musculus, RAW264.7; LPS-stimulated RAW 264.7; average of four repetitions ± SEM; read-out: TNFα production IC50
Experimental: as §4, §5
(§8) To determine TNF-α levels, cells were precultivated with the tested compounds for 24 h. After 2 h of incubation with LPS, the medium was diluted 1:10 with ELISA diluent. To determine the level of IL-6, cells were cultivated for 6 h with LPS and the tested compounds. Cytokine production was determined using an uncoated ELISA performed according to the manufacturer’s instructions.

MRSA 3596 = assay: Mode of antimicrobial action with erythromycin or gentamicin, ermA- and aadD-positive strain; format: cell-based, S. aureus; settings: for effect (mode of action with erythromycin) / effect (mode of action with gentamicin) / FIC (Fractional Inhibitory Concentration Index): MRSA 3596; for MIC, Gentamicin [1 mg/L] yes / MIC: MRSA 3596 (aadD); for MIC, Gentamicin [1 mg/L] yes: with gentamicin 1 mg/L; for MIC, erythromycin [1 mg/L] yes / MIC, erythromycin [1 mg/L] no: MRSA 3596 (ermA); for MIC, erythromycin [1 mg/L] yes: with erythromycin 1 mg/L; for MIC, erythromycin [1 mg/L] no: without erythromycin, Table 4; for MIC: Staphylococcus aureus, 24 h, read-out: MIC, Gentamicin [1 mg/L] no, without gentamicin, Table S6
Excerpt: Erythromycin is a macrolide antibiotic that inhibits proteosynthesis by binding to the 50S subunit of the ribosome. In Staphylococcus species, resistance to erythromycin is associated with the presence of methyltransferases (encoded by erm genes) that alter the ribosomal target site. Another typical mechanism of resistance to erythromycin is the presence of an ATP-dependent efflux pump encoded by the msr(A) gene or a major facilitator superfamily (MFS) pump encoded by the lmrS gene. Both efflux pumps reduce the concentration of erythromycin in the cell below the therapeutic dose by transporting it across the membrane to the extracellular space. Another erythromycin resistance gene is the mph(C) gene, the product of which is a phosphotransferase that alters the structure of macrolide antibiotics. To elucidate the mechanism of erythromycin resistance modulation in S. aureus, further tests were performed with the strains MRSA 331 and MRSA 3596, which inactivate erythromycin via a single mechanism (ermC and ermA, respectively). […] Therefore, if the activity was not strain-specific, it would be necessary to consider the effect of the derivatives on this pump (Table 3).
Among the mechanisms of resistance to gentamicin previously described in S. aureus, the presence of enzymes that alter the structure of aminoglycosides is crucial. These enzymes can transfer nucleotides, phosphates, or acetyls to various −OH or −NH2 groups of gentamicin, preventing its subsequent interaction with the cellular target, i.e., the 30S ribosomal subunit. The bifunctional aminoglycoside-modifying enzyme with acetylation and phosphotransferase activities encoded by the gene aac(6’)/aph(2’), 4′,4″ adenyltransferase encoded by the aadD gene, and aminoglycoside O-phosphotransferase encoded by the gene aph(3′) are the most important.[37] […] For this reason, further testing continued using strains MRSA 3596 and MRSA 1584, which inactivate gentamicin only by a single mechanism (aadD and aac(6’)-aph(2’’), respectively).
as §2, §3

[6] = test system: interleukin 6 (IL-6) production by RAW 264.7 stimulated by LPS; assay: Anti-inflammatory activity: IL-6 production by LPS-stimulated macrophages; format: cell-based, Murine; settings: for IC50: Mus musculus, RAW264.7, LPS-stimulated RAW 264.7, average of four repetitions ± SEM
Experimental: as §4, §5, §8

S. aureus MRSA 9 = assay: Antibacterial activity, multidrug-resistant strain; format: cell-based; settings: Staphylococcus aureus, MRSA; multidrug-resistant strain; three repetitions ± SEM
Experimental: as §1, §2, §3

[7] = 72 h incubation, resazurin, average of three repetitions ± SEM

SMILES | minimum inhibitory concentration (MIC) in the presence of erythromycin [1] [µM] | minimum inhibitory concentration (MIC) in the presence of gentamicin [1] | IC50 [2] [µM] | IC50 [3] [µM] | IC50 [4] [µM] | IC50 (S. aureus CCM 4223) [µM] | IC50 [5] [µM] | effect (mode of action with erythromycin) (MRSA 3596) | effect (mode of action with gentamicin) (MRSA 3596) | MIC, Gentamicin [1 mg/L] yes (MRSA 3596) [µM] | MIC, erythromycin [1 mg/L] yes (MRSA 3596) [µM] | MIC, erythromycin [1 mg/L] no (MRSA 3596) [µM] | FIC (Fractional Inhibitory Concentration Index) (MRSA 3596; with erythromycin) | FIC (Fractional Inhibitory Concentration Index) (MRSA 3596; with gentamicin) | MIC (MRSA 3596) [µM] | IC50 [6] [µM] | IC50 (S. aureus MRSA 9) [µM] | also measured
O=c1c(O)c(-c2ccc(O)c(O)c2)oc2cc(O)cc(O)c12 [compound 4, quercetin, reference compound] | 117.3 ± 4.7 | >200 ^note 1 μM | 9.3 ± 0.6 | 127 ± 3.4 | 80 ± 1.5 | > 200 | 55.1 ± 2.1 | synergy (Fractional Inhibitory Concentration Index (FIC) < 0.5 indicates synergism) | synergy (Fractional Inhibitory Concentration Index (FIC) < 0.5 indicates synergism) | 54.5 ± 0.6 (≈ 16.5 µg/mL) | 58.6 ± 1.2 (≈ 17.7 µg/mL) | 178.1 ± 2.7 (≈ 53.8 µg/mL) | 0.33 ± 0.01 | 0.31 ± 0.01 | 178 ± 2.7 (≈ 53.8 µg/mL) | 4.7 ± 0.2 | > 200 | inhibition at 200 µM ([1]; Staphylococcus aureus, MRSA, with gentamicin 1 mg/L, maximum concentration used (200 μM), read-out: maximum concentration used inhibited bacterial growth to): 57%; effect (mode of action with erythromycin) (MRSA 3596; listed as quercetin): synergistic activity
O=c1cc(-c2ccc(O)c(O)c2)oc2cc(O)cc(O)c12 [compound 10, luteolin, reference compound] | 147.3 ± 7.7 | 84.7 ± 1.8 µM | 13.3 ± 0.2 | 34.7 ± 1 | 42.9 ± 3.4 | > 200 | 25.9 ± 0.3 | synergy (Fractional Inhibitory Concentration Index (FIC) < 0.5 indicates synergism) | synergy (Fractional Inhibitory Concentration Index (FIC) < 0.5 indicates synergism) | 6.7 ± 0.1 (≈ 1.92 µg/mL) | 14.3 ± 0.9 (≈ 4.09 µg/mL) | 51.1 ± 1.3 (≈ 14.6 µg/mL) | 0.28 ± 0.02 | 0.13 ± 0.01 | 51.1 ± 1.3 (≈ 14.6 µg/mL) | 7.3 ± 0.2 | > 200 | effect (mode of action with erythromycin) (MRSA 3596; listed as luteolin): synergistic activity
O=c1cc(-c2ccc(O)c(O)c2)oc2c(Nc3cccc(F)c3)c(O)cc(O)c12 [compound 15, 2-(3,4-Dihydroxyphenyl)-8-(3-fluoroanilino)-5,7-dihydroxy-4H–1-benzopyran-4-one] | >200 | 12.4 ± 0.3 µM | 31.8 ± 0.9 |  |  | 28 ± 2.2 | > 25 |  | synergy (Fractional Inhibitory Concentration Index (FIC) < 0.5 indicates synergism) | 5.3 ± 0.1 (≈ 2.1 µg/mL) |  |  |  | 0.21 ± 0.1 | 25.7 ± 0.4 (≈ 10.2 µg/mL) | 8 ± 0.6 | 56.9 ± 1.9 | IC50 [3, 7]: 26 ± 5.8 µM; IC50 [4, 7]: 30.9 ± 2.1 µM; ability to inhibit IL-6 production compared to luteolin, in words ([6]; LPS-stimulated macrophages): same ability to inhibit IL-6 production as luteolin
